Common to all, as to type: functional, cell-based
The subject of experiment [1] is SK-OV-3. Put plainly: Cytotoxicity against human SKOV3 cells by SRB assay. A general note: Sulforhodamine B stains cellular protein and so reports cell mass.
Experiment [2] relates to HCT-15. Put plainly: Cytotoxicity against human HCT15 cells by SRB assay.
Experiment [3] concerns SK-MEL-2. The experiment can be described thus: Cytotoxicity against human SK-MEL-2 cells by SRB assay.
Experiment [4] has as its system A549. Put plainly: Cytotoxicity against human A549 cells by SRB assay.

With `COc1ccc(C[C@H]2c3cc(O)c(OC)cc3CCN2C)cc1O` [(S)-RETICULINE], the IC50 (usually the midpoint of a concentration-inhibition curve) was more than 30 µM in experiment [1], 29.4 µM in experiment [2], more than 30 µM in experiment [3] and more than 30 µM in experiment [4].

Consider `COc1cc2c(cc1OC)C1Cc3ccc(O)c(O)c3CN1CC2` (stereo not given) [DEMETHYLCORYDALMINE], for which the IC50 in experiment [1] stood at 5.14 µM; in experiment [2] it was 2.86 µM; in experiment [3], 7.87 µM; in experiment [4] it was 8.34 µM.

Take `COc1cc2c(cc1OC)C1Cc3ccc(O)c(OC)c3CN1CC2` (stereo not given) [CORYDALMINE]: the IC50 in experiment [1] is 28.5 µM; in experiment [2], 26.4 µM; in experiment [3] it was 27.2 µM; in experiment [4], more than 30 µM.

In the case of `COc1c(O)ccc2cc3[n+](cc12)CCc1cc2c(cc1-3)OCO2` [THALIFENDINE], the IC50 was more than 30 µM in experiment [1], more than 30 µM in experiment [2], 25.7 µM in experiment [3] and 28.3 µM in experiment [4].

For the compound `COc1ccc2c(c1OC)CN1CCc3cc4c(cc3C1C2)OCO4` (stereo not given) [TETRAHYDROBERBERINE], the IC50 was more than 30 µM in experiment [1], more than 30 µM in experiment [2], 27.9 µM in experiment [3] and more than 30 µM in experiment [4].

Regarding `CN1CCc2cc3c(cc2[C@@H]1Cc1ccc2c(c1C(=O)O)OCO2)OCO3`, the IC50 in experiment [1] was more than 30 µM; in experiment [2] it was 27.8 µM; in experiment [3], more than 30 µM; in experiment [4], more than 30 µM.

As for `COc1ccc(C[C@H]2NCCc3cc4c(cc32)OCO4)c(C(=O)O)c1OC` [CORYTERNATINE C], the IC50 was more than 30 µM in experiment [1], 27.6 µM in experiment [2], more than 30 µM in experiment [3] and more than 30 µM in experiment [4].

Turning to `c1c2c(cc3c1OCO3)-c1cc3ccc4c(c3c[n+]1CC2)OCO4` [COPTISINE CHLORIDE], the IC50 in experiment [1] is more than 30 µM; in experiment [2], 29.1 µM; in experiment [3], more than 30 µM; in experiment [4], 24 µM.

Turning to `COc1cc2c(cc1O)C1Cc3ccc4c(c3CN1CC2)OCO4` (stereo not given) [CHEILANTHIFOLINE], the IC50 in experiment [1] stood at 27.4 µM; in experiment [2], 29.8 µM; in experiment [3], 22.2 µM; in experiment [4], 20.6 µM.

As for `COc1cccc2c1C(=O)c1c(O)c3c(c(O)c1C2=O)C[C@@](O)(C(=O)CO)C[C@@H]3O[C@H]1C[C@H](N)[C@H](O)[C@H](C)O1` [DOXORUBICIN], the IC50 stood at 0.003 µM in experiment [1], 0.038 µM in experiment [2] and 0.012 µM in experiment [3].

For the compound `O=C(O)c1c(C[C@@H]2NCCc3cc4c(cc32)OCO4)ccc2c1OCO2` [CORYTERNATINE A], the IC50 in experiment [1] is more than 30 µM; in experiment [2], 23.3 µM; in experiment [3], more than 30 µM; in experiment [4], more than 30 µM.

Take `COc1ccc(C[C@@H]2NCCc3cc4c(cc32)OCO4)c(C(=O)O)c1OC` [CORYTERNATINE B]: the IC50 in experiment [1] is more than 30 µM; in experiment [2] it was 24.6 µM; in experiment [3], more than 30 µM; in experiment [4], more than 30 µM.

Take `COc1ccc(C[C@@H]2c3cc(O)c(OC)cc3CCN2C)cc1O` [(R)-RETICULINE]: the concentration for half-maximal inhibition (IC50) in experiment [1] was more than 30 µM; in experiment [2], 26.8 µM; in experiment [3], more than 30 µM; in experiment [4], more than 30 µM.

`COc1ccc2cc3[n+](cc2c1OC)CCc1cc2c(cc1-3)OCO2` [BERBERINE CHLORIDE]: the IC50 turned out to be 16.4 µM in experiment [1], 16.6 µM in experiment [2], 13.8 µM in experiment [3] and 6.27 µM in experiment [4].

(Values after ChEMBL document CHEMBL1208733, “Benzylisoquinoline alkaloids from the tubers of Corydalis ternata and their cytotoxicity” (Bioorg Med Chem Lett, 2010).)
